Test results: patent US20260184710A1, “CASITAS B-LINEAGE LYMPHOMA PROTOONCOGENE B (CBL-B) DEGRADING COMPOUNDS AND ASSOCIATED METHODS OF USE” (Arvinas Operations, Inc., priority 2022, published 2026)

Experiments:
[1] = molecular target: T1, Cbl-b (Homo sapiens, UniProt Q13191); experiment: Cbl-b Degradation Method A (FACS, anti-Cbl-b antibody staining); assay type: cell-based; settings: Cbl-b-HiBit KI Jurkat Cells, incubated at least 20 hours; for DC50: half maximal degradation, read-out: Cbl-b Degredation Method A IC50; for Dmax: Jurkat, maximum degradation observed, read-out: Cbl-b Degredation Method A Dmax (%)
T1 construct: Cbl-b-HiBit KI Jurkat Cells were purchased from Promega; host or cells: Cbl-b-HiBiT knock-in Jurkat cells
T1 sequence (Q13191 whole entry): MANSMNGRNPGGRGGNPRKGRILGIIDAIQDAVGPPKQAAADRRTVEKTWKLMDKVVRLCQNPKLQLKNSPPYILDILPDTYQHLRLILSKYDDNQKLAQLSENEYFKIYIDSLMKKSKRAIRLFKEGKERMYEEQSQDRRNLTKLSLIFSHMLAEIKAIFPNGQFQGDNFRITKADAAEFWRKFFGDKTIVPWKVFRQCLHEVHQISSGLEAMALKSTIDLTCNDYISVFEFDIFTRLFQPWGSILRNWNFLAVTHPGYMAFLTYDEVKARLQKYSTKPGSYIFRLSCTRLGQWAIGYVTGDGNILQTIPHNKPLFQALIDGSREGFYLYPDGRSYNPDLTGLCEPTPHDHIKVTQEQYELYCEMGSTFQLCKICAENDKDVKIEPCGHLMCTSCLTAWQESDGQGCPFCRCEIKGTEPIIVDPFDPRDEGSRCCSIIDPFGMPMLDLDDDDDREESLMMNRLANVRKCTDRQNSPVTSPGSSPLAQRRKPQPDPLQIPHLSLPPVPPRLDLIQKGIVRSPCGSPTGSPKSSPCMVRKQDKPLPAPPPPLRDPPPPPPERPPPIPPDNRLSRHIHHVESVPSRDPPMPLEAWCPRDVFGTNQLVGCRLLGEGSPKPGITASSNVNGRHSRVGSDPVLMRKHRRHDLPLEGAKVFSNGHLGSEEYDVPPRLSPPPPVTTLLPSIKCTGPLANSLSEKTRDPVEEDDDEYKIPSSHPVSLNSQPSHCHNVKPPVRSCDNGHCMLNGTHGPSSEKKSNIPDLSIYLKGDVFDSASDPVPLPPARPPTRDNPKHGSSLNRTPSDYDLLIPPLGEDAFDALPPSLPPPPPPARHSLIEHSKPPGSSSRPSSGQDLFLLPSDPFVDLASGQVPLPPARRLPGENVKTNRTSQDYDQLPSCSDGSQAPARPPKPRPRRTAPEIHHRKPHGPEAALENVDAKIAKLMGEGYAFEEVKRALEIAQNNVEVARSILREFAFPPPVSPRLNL
How it was run: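 Readout is flow cytometry of fixed, permeabilized cells immunostained for Cbl-b (primary 1:200, AF488 secondary). Cells were Cbl-b-HiBit knock-in Jurkat, exposed to compound ≥20 h at 37 °C; half-maximal degradation concentration (DC50) and maximal degradation (Dmax) calculated relative to control.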

[2] = molecular target: T1, Cbl-b; experiment: Cbl-b Degradation Method B (Nano-Glo HiBiT lytic detection); assay type: cell-based; settings: Cbl-b-HiBit KI Jurkat Cells, incubated at least 6-24 hours; for DC50: half maximal degradation, read-out: Cbl-b Degredation Method B IC50; for Dmax: read-out: Cbl-b Degredation Method B Dmax (%)
How it was run: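 An 11-point, 3-fold compound dilution was applied for 6-24 hours to Jurkat cells carrying HiBiT-tagged endogenous Cbl-b. Lytic HiBiT luminescence quantified residual protein. Outputs are DC50 and Dmax relative to DMSO control.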

Compound | DC50 [1] | Dmax [1] | DC50 [2] | Dmax ([2]; maximum degradation observed) | Cbl-b Degredation Method B Dmax (%) ([2]; maximum degradation observed)
Cn1cnnc1CC1(c2cccc(N3Cc4c(cc(CN5CCC(N6CC7(CN(c8ccc9c(c8)C(=O)N(C8CCC(=O)NC8=O)C9=O)C7)C6)CC5)cc4C(F)(F)F)C3=O)c2)COC1 (centres unmarked) [Example 106, 2-(2,6-dioxopiperidin-3-yl)-5-[6-(1-{[2-(3-{3-[(4-methyl-4H-1,2,4-triazol-3-yl)methyl]oxetan-3-yl}phenyl)-3-oxo-7-(trifluoromethyl)-2,3-dihydro-1H-isoindol-5-yl]methyl}piperidin-4-yl)-2,6-diazaspiro[3.3]heptan-2-yl]-2,3-dihydro-1H-isoindole-1,3-dione] | 50 to 500 nM | > 70% | > 500 nM |  | 
COc1c(N2CCC(CN3CCC4(CC3)CN(c3cc5c(c(C(F)(F)F)c3)CN(c3cccc([C@]6(Cc7nncn7C)C[C@@H](C#N)C6)c3)C5=O)C4)CC2)ccc2c1CN(C1CCC(=O)NC1=O)C2=O (some centres unmarked) [Example 174, (1r,3r)-3-(3-{6-[7-({1-[2-(2,6-dioxopiperidin-3-yl)-4-methoxy-1-oxo-2,3-dihydro-1H-isoindol-5-yl]piperidin-4-yl}methyl)-2,7-diazaspiro[3.5]nonan-2-yl]-1-oxo-4-(trifluoromethyl)-2,3-dihydro-1H-isoindol-2-yl}phenyl)-3-[(4-methyl-4H-1,2,4-triazol-3-yl)methyl]cyclobutane-1-carbonitrile] | 5 to 50 nM | > 70% | < 5 nM | > 70% | 
Cn1cnnc1CC1(c2cccc(N3Cc4c(cc(CN5CCC[C@H](CN6CCC(CN7CCN(c8ccc9c(c8)C(=O)N(C8CCC(=O)NC8=O)C9=O)CC7)CC6)C5)cc4C(F)(F)F)C3=O)c2)COC1 (stereo partly drawn) [Example 101, 2-(2,6-dioxopiperidin-3-yl)-5-{4-[(1-{[(3R)-1-{[2-(3-{3-[(4-methyl-4H-1,2,4-triazol-3-yl)methyl]oxetan-3-yl}phenyl)-3-oxo-7-(trifluoromethyl)-2,3-dihydro-1H-isoindol-5-yl]methyl}piperidin-3-yl]methyl}piperidin-4-yl)methyl]piperazin-1-yl}-2,3-dihydro-1H-isoindole-1,3-dione] | > 500 nM |  | > 500 nM |  | 
Cn1cnnc1CC1(c2cccc(N3Cc4c(cc(CN5CCN(C[C@H]6CC[C@H](OC7CCN(c8ccc9c(c8F)CN(C8CCC(=O)NC8=O)C9=O)CC7)CC6)CC5)cc4C(F)(F)F)C3=O)c2)COC1 (some centres unmarked) [Example 2, 3-[4-fluoro-1-oxo-5-(4-{[(1r, 4r)-4-[(4-{[2-(3-{3-[(4-methyl-4H-1,2,4-triazol-3-yl)methyl]oxetan-3-yl}phenyl)-3-oxo-7-(trifluoromethyl)-2,3-dihydro-1H-isoindol-5-yl]methyl}piperazin-1-yl)methyl]cyclohexyl]oxy}piperidin-1-yl)-2,3-dihydro-1H-isoindol-2-yl]piperidine-2,6-dione] | < 5 nM | > 70% | < 5 nM | 35 to 70% | 
CC1c2nc(N3CCC(CN4CCC(CN5CCN(Cc6cc7c(c(C(F)(F)F)c6)CN(c6cccc([C@]8(Cc9nncn9C)C[C@@H](C#N)C8)c6)C7=O)C(C)(C)C5)CC4)CC3)ccc2C(=O)N1C1CCC(=O)NC1=O (some centres unmarked) [Example 303, (1r,3r)-3-(3-{6-[(4-{[1-({1-[6-(2,6-dioxopiperidin-3-yl)-7-methyl-5-oxo-5H,6H,7H-pyrrolo[3,4-b]pyridin-2-yl]piperidin-4-yl}methyl)piperidin-4-yl]methyl}-2,2-dimethylpiperazin-1-yl)methyl]-1-oxo-4-(trifluoromethyl)-2,3-dihydro-1H-isoindol-2-yl}phenyl)-3-[(4-methyl-4H-1,2,4-triazol-3-yl)methyl]cyclobutane-1-carbonitrile] | 5 to 50 nM | 35 to 70% | < 5 nM |  | C (C ≤ 35)
